CC(=O)c1cccc([N+](=O)[O-])c1
solubility (mole fraction)
Settings	in acetone	in acetonitrile	in cyclohexane	in ethanol	in ethyl acetate	in isopropanol	in methanol	in n-propanol	in toluene
278.15 K	0.1	0.0717	–	0.00487	0.0782	0.00433	0.00642	0.00388	0.0545
283.15 K	0.121	0.0892	0.00124	0.00619	0.0906	0.00517	0.00759	0.00487	0.0657
288.15 K	0.146	0.116	0.00159	0.00785	0.109	0.00635	0.00928	0.00609	0.082
293.15 K	0.179	0.147	0.00204	0.00993	0.132	0.00778	0.0117	0.00763	0.103
298.15 K	0.218	0.185	0.0026	0.0125	0.159	0.00944	0.0146	0.00975	0.128
303.15 K	0.264	0.233	0.00333	0.0158	0.191	0.0117	0.0183	0.0124	0.161
308.15 K	0.319	0.292	0.0043	0.0204	0.23	0.0145	0.0231	0.0157	0.2
313.15 K	0.384	0.367	0.0056	0.0262	0.277	0.018	0.0299	0.0204	0.254
318.15 K	0.458	0.454	0.00743	0.0355	0.341	0.023	0.0389	0.0265	0.328

CC(=O)c1ccc([N+](=O)[O-])cc1
solubility (mole fraction)
Settings	in acetone	in acetonitrile	in cyclohexane	in ethanol	in ethyl acetate	in isopropanol	in methanol	in n-propanol	in toluene
278.15 K	0.134	0.103	–	0.00667	0.101	0.00349	0.00839	0.00481	0.0674
283.15 K	0.158	0.123	0.00154	0.00821	0.117	0.00455	0.0102	0.00608	0.0806
288.15 K	0.185	0.146	0.00203	0.01	0.137	0.00577	0.0125	0.00762	0.0959
293.15 K	0.216	0.174	0.00259	0.0123	0.161	0.00758	0.0155	0.00968	0.114
298.15 K	0.25	0.206	0.00332	0.0155	0.188	0.00978	0.0187	0.0121	0.137
303.15 K	0.287	0.244	0.00423	0.019	0.22	0.0128	0.0231	0.0154	0.164
308.15 K	0.33	0.287	0.00542	0.0236	0.257	0.0169	0.0283	0.0194	0.195
313.15 K	0.376	0.336	0.00694	0.0293	0.3	0.0223	0.0343	0.0246	0.232
318.15 K	0.428	0.389	0.0089	0.0365	0.345	0.0296	0.0421	0.0313	0.275

Reference: BigSolDB 2.1
